Assay results from patent US9834541B2, “2-aminopyridine compounds” (Merck Patent GmbH, priority 2012, dated 2017).
pIC50: −log10 of the molar value.

Experiments:
Wnt pathway = test: Cellular assay for Wnt pathway activity, LS174T-shl-fLuc clone 5 (LS174T-L5) luciferase reporter assay; type: cell-based; settings: Homo sapiens; LS174T TCF luciferase reporter cells, 24 hours incubation
Text: 1. Cellular Assay for Wnt Pathway Activity LS174T-shl-fLuc Clone 5 (LS174T-L5) Reporter Assay Principle:
This assay is based on an in-vitro luciferase activity readout. The human colon cancer cell line, LS174T was transduced with a lentivirus encoding a short half-life luciferase (with a destabilised PEST sequence construct; construct F1756): 16×TCF/LEF transcription sites—short half life firefly luciferase on a basal pTA promoter—puromycin resistance gene on an EF-1-α promoter). This construct was made using the lentiviral base vector: pCDF1-MCS2-EF1-Puro from System Biosciences (cat. # CD110B-1). The luciferase has a T1/2 of about 60 minutes.
Stable luciferase-expressing clones were selected, using 1 μg/mL puromycin selection and the clones were bulked up.
Compounds that inhibit the Wnt pathway are predicted to inhibit the induction of luciferase transcription by TCF; this will result in reduced luciferase protein production and luciferase signal readout.
Compounds were tested for their Wnt pathway inhibitory activities using the described firefly luciferase reporter cell based assay. An LS174T luciferase reporter cell line was used which contained a T-Cell Factor (TCF) dependent gene promoter firefly luciferase construct.
Compounds, in concentrations from 30 μM to 1 nM, were incubated for 24 hours on the cells. Luciferase activities were determined using the Steady Glo Luciferase Assay System (Promega) and the TOPCOUNT microplate reader (Perkin Elmer). For analysis, the obtained data were normalized against the untreated vehicle control and fitted for determination of the IC50 values using the Excel Fit application of the Excel Software (Microsoft).

[1] = CLint (intrinsic clearance) assay, liver microsomal incubation; type: in vitro ADME, human; settings: liver microsomes, pH 7.4; human hepatic microsomes, 0.5 mg/mL protein, class symbols
Protocol: Also shown is the human hepatic microsomal intrinsic clearance (CLint), whereby the following classification is used:
2. CLint (Intrinsic Clearance) Assay
A Tecan Genesis workstation (RWS ASY 150/8) was used to perform the microsomal incubations. Analysis was carried out using a Waters ACQUITY UPLC system coupled to an ABSciex API3000 mass spectrometer. Data analysis was performed using Assay Explorer (Symyx).
Column: Acquity UPLC BEH C18, 2.1×50 mm, 1.7 um (Waters)
Mobile phases: • A=0.1% formic acid in water • B=acetonitrile
Column temperature: 50° C.
0.1 M potassium phosphate buffer pH 7.4 containing 1 mM MgCl2
15 mM NADPH in phosphate buffer
5.0 mg protein/mL liver microsomes in phosphate buffer
Each experiment consists of 12 test and 2 reference compounds. The reference compounds are incubated as a cocktail.
Dilution of test compounds was done in 2 steps from a 10 mM DMSO stock solution. First 4 μL stock solution was added to 196 μL of 20% DMSO in potassium phosphate buffer pH 7.4. In a second step 10 μL of the first dilution were added to 1890 μL potassium phosphate buffer and 100 μL internal standard solution to a final concentration of […].
100 μL of the final compound dilution were aliquoted into a 96 deep well plate. 12.5 μL liver microsomes were added to each well (0.5 mg/mL final protein concentration) and the samples preincubated for 5 min at 37° C. and 800 rpm agitation.
After the preincubation, 250 μL cold acetonitrile were added to the 0 min samples to prevent a reaction. Following this, 12.5 μL NADPH solution were added to all wells to start the incubation, with the exception of the 0 min and 30 min controls without cofactor, where the NADPH was substituted for phosphate buffer.
The incubations were stopped after 5, 10, 20 and 30 min by adding 250 μL cold acetonitrile to the individual wells.
The quenched samples were then centrifuged at 4000 g for 1 h at 4° C. 100 μL of the supernatant were transferred into 96 well plates for analysis.
The metabolic stability of each compound was determined by measurement of the change in LC-MS/MS peak area over time. Assay Explorer software was used to automatically calculate the slope k of the decline. The intrinsic clearance (CLint) of each compound was then calculated according to the formula: CLint(μL/min/mg protein)=k1000/protein concentration.

| SMILES | pIC50 (Wnt pathway) | microsomal CLint at 0.8 μM [1] [µL/min/mg] |
| --- | --- | --- |
| Nc1ncc(-c2ccc3c(N)n[nH]c3c2)c(N2CCC3(CCNC3=O)CC2)c1C(F)(F)F [Compound 44, 8-[2-Amino-5-(3-amino-1H-indazol-6-yl)-3-trifluoro-methyl-pyridin-4-yl]-2,8-diaza-spiro[4.5] decan-1-one] | 6.57 | 10 to 50 |
| CN1c2ccc(-c3cnc(N)c(Cl)c3N3CCC4(CC3)NCCNC4=O)cc2CS1(=O)=O [Compound 46, 9-[2-Amino-3-chloro-5-(1-methyl-2,2-dioxo-2,3-dihydro-1H-2I6-benzo[c]isothiazol-5-yl)-pyridin-4-yl]-1,4,9-triaza-spiro[5.5] undecan-5-one] | 6.82 | 50 to 100 |
| Cn1ncc2cc(-c3cnc(N)c(C(F)(F)F)c3N3CCC4(CC3)CC(=O)NC4=O)ccc21 [Compound 49, 8-[2-Amino-5-(1-methyl-1H-indazol-5-yl)-3-trifluoromethyl-pyridin-4-yl]-2,8-diaza-spiro[4.5] decane-1,3-dione] | 8.40 | 10 to 50 |
| CN1C(=O)Cc2ccc(-c3cnc(N)c(C(F)(F)F)c3N3CCC4(CCNC4=O)CC3)cc21 [Compound 50, 8-[2-Amino-5-(1-methyl-2-oxo-2,3-dihydro-1H-indol-6-yl)-3-trifluoromethyl-pyridin-4-yl]-2,8-diaza-spiro[4.5] decan-1-one] | 6.09 | 10 to 50 |
| CN1C(=O)Cc2cc(-c3cnc(N)c(C(F)(F)F)c3N3CCC4(CCNC4=O)CC3)ccc21 [Compound 51, 8-[2-Amino-5-(1-methyl-2-oxo-2,3-dihydro-1H-indol-5-yl)-3-trifluoromethyl-pyridin-4-yl]-2,8-diaza-spiro[4.5] decan-1-one] | 6.34 | 10 to 50 |
| Cn1cc(-c2ccc(-c3cnc(N)c(C(F)(F)F)c3N3CCC4(CC3)CC(=O)NC4=O)cc2)cn1 [Compound 52, 8-{2-Amino-5-[4-(1-methyl-1H-pyrazol-4-yl)-phenyl]-3-trifluoromethyl-pyridin-4-yl}-2,8-diaza-spiro[4.5] decane-1,3-dione] | 8.92 | 10 to 50 |
| CN1c2ccc(-c3cnc(N)c(C(F)(F)F)c3N3CCC4(CCNC4=O)CC3)cc2CS1(=O)=O [Compound 53, 8-[2-Amino-5-(1-methyl-2,2-dioxo-2,3-dihydro-1H-2I6-benzo[c]isothiazol-5-yl)-3-trifluoro-methyl-pyridin-4-yl]-2,8-diaza-spiro[4.5] decan-1-one] | 8.08 | 50 to 100 |

Results, then the compound that gave them:

| pIC50 (Wnt pathway) | microsomal CLint at 0.8 μM [1] [µL/min/mg] | SMILES |
| --- | --- | --- |
| 7.34 | 10 to 50 | Cn1cc(-c2ccc(-c3cnc(N)c(C(F)(F)F)c3N3CCC4(CCNC4=O)CC3)cc2)cn1 [Compound 43, 8-{2-Amino-5-[4-(1-methyl-1H-pyrazol-4-yl)-phenyl]-3-trifluoromethyl-pyridin-4-yl}-2,8-diaza-spiro[4.5] decan-1-one] |
| 6.96 | 50 to 100 | Cn1ncc2cc(-c3cnc(N)c(C(F)(F)F)c3N3CCC(C(N)=O)CC3)ccc21 [Compound 47, 2′-Amino-5′-(1-methyl-1H-indazol-5-yl)-3′-trifluoromethyl-3,4,5,6-tetrahydro-2H-[1,4′] bipyridinyl-4-carboxylic acid amide] |
| 7.06 | 10 to 50 | CC(C)n1cc(-c2ccc(-c3cnc(N)c(C(F)(F)F)c3N3CCC4(CC3)CNC(=O)O4)cc2)cn1 [Compound 54, 8-{2-Amino-5-[4-(1-isopropyl-1H-pyrazol-4-yl)-phenyl]-3-trifluoro-methyl-pyridin-4-yl}-1-oxa-3,8-diaza-spiro[4.5] decan-2-one] |
| 6.77 | 10 to 50 | CC(C)n1cc(-c2ccc(-c3cnc(N)c(Cl)c3N3CCC4(CC3)CNC(=O)O4)cc2)cn1 [Compound 55, 8-{2-Amino-3-chloro-5-[4-(1-isopropyl-1H-pyrazol-4-yl)-phenyl]-pyridin-4-yl}-1-oxa-3,8-diaza-spiro[4.5] decan-2-one] |
